Reference: paper PMC10999543, “Identification of kinase modulators as host-directed therapeutics against intracellular methicillin-resistant Staphylococcus aureus” (Frontiers in Cellular and Infection Microbiology, 2024)
Where two headings read alike, the source gives them in different places.

Tests used:
[1] = tested on: intracellular MRSA; assay type: cell-based, Staphylococcus aureus; details: for %GFP+ rep 1 / z-scoreMRSA+ rep 1: replicate 1; for %GFP+ rep 2 / z-scoreMRSA+ rep 2: replicate 2; for %GFP+ rep 3 / z-scoreMRSA+ rep 3: replicate 3; for z-scoreMRSA+ mean: mean of 3 replicates
In short: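 HeLa cells infected with GFP-MRSA (MOI ~6.8), gentamicin-cleared, then incubated overnight at 37°C with inhibitors plus 5 µg/ml gentamicin; DMSO as negative control, triplicates. Flow cytometry gave % GFP-positive cells and cell count (viability surrogate); hits by plate z-score (MRSA ≤ -2, HeLa count ≥ -3).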

[2] = tested on: HeLa cells; test: Compound screen by flow cytometry: HeLa cell count as surrogate readout of cell viability (z-scoreHeLa); assay type: cell-based, human; details: for cell count rep 1 / z-scoreHeLa rep 1: replicate 1; for cell count rep 2 / z-scoreHeLa rep 2: replicate 2; for cell count rep 3 / z-scoreHeLa rep 3: replicate 3; for z-scoreHeLa mean: mean of 3 replicates
In short: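 HeLa cells were infected with GFP-MRSA (mean MOI 6.8 ± 4.6) for 1 h, and extracellular bacteria were killed with 30 µg/ml gentamicin. Cells were then incubated overnight with kinase inhibitors in 5 µg/ml gentamicin, in triplicate against DMSO controls. Flow-cytometric cell count served as a viability surrogate, expressed as a plate z-score.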

[3] = PKIS compound screen raw data, MRSA-infected HeLa cells
[4] = compound screen, MRSA-infected HeLa cells
[5] = PKIS compound screen raw data, HeLa cell count
[6] = compound screen, HeLa cell count
[7] = PKIS compound screen, Yes/No call
[8] = PKIS compound screen, Yes/No call (effect without cell death)
[9] = PKIS compounds raw data, MRSA-infected HeLa cells
[10] = PKIS compounds raw data, HeLa cell count
[11] = PKIS compound screen, MRSA-infected HeLa cells
[12] = PKIS compound screen, Yes/No call on z-scoreMRSA+
[13] = PKIS compound screen, HeLa cell count
[14] = PKIS compound screen, Yes/No call on z-scoreHeLa

SMILES	%GFP+ rep 1 [1, 3]	%GFP+ rep 2 [1, 3]	%GFP+ rep 3 [1, 3]	cell count rep 1 [2, 5]	cell count rep 2 [2, 5]	cell count rep 3 [2, 5]	effect [1, 7]	hit [1, 8]	z-scoreMRSA+ mean ([1]; PKIS compound screen)	z-scoreMRSA+ rep 1 ([1]; PKIS compound screen)	z-scoreMRSA+ rep 2 ([1]; PKIS compound screen)	z-scoreMRSA+ rep 3 ([1]; PKIS compound screen)	%GFP+ rep 1 [1, 9]	%GFP+ rep 2 [1, 9]	%GFP+ rep 3 [1, 9]	cell death [2, 7]	z-scoreHeLa mean ([2]; PKIS compound screen)	z-scoreHeLa rep 1 ([2]; PKIS compound screen)	z-scoreHeLa rep 2 ([2]; PKIS compound screen)	z-scoreHeLa rep 3 ([2]; PKIS compound screen)	also measured
CS(=O)(=O)CCNCc1nc(-c2ccc3ncnc(Nc4ccc(F)c(Cl)c4)c3c2)cs1 [GW461104A]	24.3%	20.7%	21.4%	1413	957	819	–	–	–	–	–	–	–	–	–	–	–	–	–	–	effect ([1]; Yes/No call from z-scoreMRSA+): No; hit ([1]; Yes/No: effect without cell death): No; z-scoreMRSA+ mean [1, 4]: -0.31; z-scoreMRSA+ rep 1 [1, 4]: -0.23; z-scoreMRSA+ rep 2 [1, 4]: -0.46; z-scoreMRSA+ rep 3 [1, 4]: -0.24; cell death ([2]; Yes/No call from z-scoreHeLa): No; z-scoreHeLa mean [2, 6]: -2.50; z-scoreHeLa rep 1 [2, 6]: -2.12; z-scoreHeLa rep 2 [2, 6]: -2.57; z-scoreHeLa rep 3 [2, 6]: -2.79
Cc1ccc(S(=O)(=O)Nc2ccc(Nc3nccc(Nc4cccc5[nH]ncc45)n3)cc2)cc1 [GSK581271A]	–	–	–	–	–	–	No	No	-0.30	-0.62	0.0118	-0.29	23.9%	26.1%	25.7%	No	0.40	0.33	0.35	0.51	cell count rep 1 [2, 10]: 6603; cell count rep 2 [2, 10]: 6528; cell count rep 3 [2, 10]: 6401
COc1ccc(Nc2nccc(N3CCC(NC(=O)C(C)c4ccc(Cl)cc4)CC3)n2)cc1 (stereo not drawn) [GSK1379812A]	20.9%	22.5%	23.9%	31442	27526	20779	No	No	0.50	0.81	0.11	0.60	31.2%	26.6%	30.5%	No	0.45	0.54	0.66	0.15	z-scoreMRSA+ mean [1, 11]: 0.71; z-scoreMRSA+ rep 1 [1, 11]: 0.57; z-scoreMRSA+ rep 2 [1, 11]: 0.84; z-scoreMRSA+ rep 3 [1, 11]: 0.73; effect [1, 12]: No; z-scoreHeLa mean [2, 13]: 0.32; z-scoreHeLa rep 1 [2, 13]: 0.21; z-scoreHeLa rep 2 [2, 13]: 0.39; z-scoreHeLa rep 3 [2, 13]: 0.36; cell death [2, 14]: No; cell count rep 1 [2, 10]: 6940; cell count rep 2 [2, 10]: 7004; cell count rep 3 [2, 10]: 5839
Cc1ccc(NC(=O)c2ccnc(N3CCN(C)CC3)c2)cc1-c1ccc(C(=O)NCC2CC2)cc1 [GW775604X]	22.9%	25.3%	27.3%	20638	17919	18503	No	No	-0.35	-0.34	-0.43	-0.27	25.3%	23.8%	25.8%	No	0.09	-0.44	1.03	-0.32	z-scoreMRSA+ mean [1, 11]: 1.46; z-scoreMRSA+ rep 1 [1, 11]: 1.10; z-scoreMRSA+ rep 2 [1, 11]: 1.61; z-scoreMRSA+ rep 3 [1, 11]: 1.66; effect [1, 12]: No; z-scoreHeLa mean [2, 13]: -0.99; z-scoreHeLa rep 1 [2, 13]: -1.62; z-scoreHeLa rep 2 [2, 13]: -1.26; z-scoreHeLa rep 3 [2, 13]: -0.08; cell death [2, 14]: No; cell count rep 1 [2, 10]: 5307; cell count rep 2 [2, 10]: 7562; cell count rep 3 [2, 10]: 5095
CN(C)CCCNc1nccc(-c2c(-c3ccc(F)cc3)nn3cc(C(F)(F)F)ccc23)n1 [GW618013A]	10.7%	13.4%	14.0%	23652	24495	45248	–	No	–	–	–	–	–	–	–	–	–	–	–	–	z-scoreMRSA+ mean [1, 11]: -1.86; z-scoreMRSA+ rep 1 [1, 11]: -2.27; z-scoreMRSA+ rep 2 [1, 11]: -1.54; z-scoreMRSA+ rep 3 [1, 11]: -1.76; effect [1, 12]: No; z-scoreHeLa mean [2, 13]: -0.21; z-scoreHeLa rep 1 [2, 13]: 0.54; z-scoreHeLa rep 2 [2, 13]: -1.92; z-scoreHeLa rep 3 [2, 13]: 0.75; cell death [2, 14]: No
